Data published in patent publication US8889861B2, “Crystalline forms of a purine derivative” (Cyclacel Limited, priority 2010, dated 2014).

Assays:
[1] = Gravimetric vapour sorption (GVS) / hygroscopicity; format: physicochemical
Procedure: Gravimetric Vapour Sorption (GVS)
Sorption isotherms were obtained using a SMS DVS Intrinsic moisture sorption analyser, controlled by SMS Analysis Suite software. […] The humidity was controlled by mixing streams of dry and wet nitrogen, with a total flow rate of 200 ml. min^−1. The relative humidity was measured by a calibrated Rotronic probe (dynamic range of 1.0-100% RH), located near the sample. The weight change, (mass relaxation) of the sample as a function of % RH was constantly monitored by the microbalance (accuracy ±0.005 mg). Typically 5-20 mg of sample was placed in a tared mesh stainless steel basket under ambient conditions. The sample was loaded and unloaded at 40% RH and 25° C. (typical room conditions). A moisture sorption isotherm was performed as outlined below (2 scans giving 1 complete cycle). The standard isotherm was performed at 25° C. at 10% RH intervals over a 0.5-90% RH range.
Method Parameters for SMS DVS Intrinsic Experiments:
The sample was recovered after completion of the isotherm and re-analysed by XRPD.
Hiden Isochema Moisture Sorption Analyser (IGAsorp)
Sorption isotherms were obtained using a Hiden Isochema Moisture Sorption Analyser (IGAsorp) controlled by IGAsorp Systems Software V6.50.48. […] The humidity was controlled by mixing streams of dry and wet nitrogen, with a total flow rate of 250 ml. min^−1. The instrument was verified for relative humidity content by measuring three calibrated Rotronic salt solutions (10-50-88%). The weight change of the sample as a function of % RH was monitored by microbalance (accuracy ±0.005 mg). A defined amount of sample was placed in a tared mesh stainless steel basket under ambient conditions. A full experimental cycle consisted of two scans (sorption and desorption) at a constant temperature (25° C.) and 10% RH intervals over a 10-90% RH range (90 minutes for each humidity level).
11.254 mg of sample was placed in a tarred mesh stainless steel basket under ambient conditions. A full experimental cycle consisted of two scans (sorption and desorption) at a constant temperature (25° C.) and 10% RH intervals over a 40-90% range (180 minutes for each humidity level). The mass increase of approximately 0.09 mg (−0.8%) and the facile uptake and loss relative to humidity level indicates a non-hygroscopic sample that dampens with surface moisture only.

[2] = Rehydration under ambient conditions followed by TGA; format: physicochemical; conditions: 8 mg sample in open TGA pan after heating to 100° C., ambient conditions (approximately 25° C. and 40% RH)
Procedure: A sample of product was heated to 100° C., held for 10 minutes, cooled to 30° C., held for 5 minutes and then re-heated to 250° C. […] To investigate whether the phosphate salt exists as a hydrate under ambient conditions that can be reversibly dehydrated at temperature in the presence of air, a series of TGA experiments were undertaken to clarify how quickly the material rehydrates under ambient conditions. A series of samples were taken to 100° C. then cooled to 25° C. under nitrogen using the TGA equipment. The samples were stored under ambient conditions (RT in air) for varying times and then the TGA experiment was re-run. As a comparison a heat/cool/heat experiment was undertaken under an inert atmosphere of nitrogen using the TGA; a sample was heated to 100° C., cooled to 25° C. and heated to 100° C. for a second time.
Within 30 minutes an 8 mg sample of product in an open TGA pan had fully rehydrated.

[3] = Storage in a humidity chamber at 25° C. (75%, 94% or 97% RH); format: physicochemical; conditions: 25° C. and 94% RH for 88 hours
Procedure: However, a large proportion of the peaks corresponding to compound (I) appear as broadened multiplets, probably due to the presence of the sulfonic acid group, making successful assignment non-trivial. A significant quantity of residual TBME was also visible, though this is believed to be unbound solvent rather than a solvate. XRPD analysis confirmed the material to be crystalline. […] Deliquescence of a sample of the product was observed after storage in a humidity chamber at 25° C. and 94% RH for 2 hours. […]

[4] = tested on: range of different cell lines; conditions: cited from earlier work
[5] = tested on: cyclin dependent kinases; conditions: cited from earlier work

Compound	hygroscopicity [1]	XRPD of sample post GVS ([1]; GVS at 25° C.)	uptake of water above 80% RH ([1]; GVS at 25° C.) [weight %]	water lost upon taking to 0% RH ([1]; GVS at 25° C.) [weight %]	XRPD of sample post GVS ([1]; GVS at 40° C.)	uptake of water above 80% RH ([1]; GVS at 40° C.) [weight %]	water lost upon taking to 0% RH ([1]; GVS at 40° C.) [weight %]	time to full rehydration [2] [min]	XRPD after storage [3]	appearance after storage [3]	potency in cellular toxicity studies [4]	CDK inhibitory activity [5]
CC[C@H](Nc1nc(NCc2cnc(C)cc2C)c2ncn(C(C)C)c2n1)[C@@H](C)O [Form B]	not to be hygroscopic	matched those acquired from product crystallised from ethanol	~1.5	0.5	matched those acquired from product crystallised from ethanol	~2	~2.6	≤ 30	matched those acquired for the phosphate salt crystallised from ethanol	no deliquescence was observed		
CC[C@H](Nc1nc(NCc2cnc(C)cc2C)c2ncn(C(C)C)c2n1)[C@@H](C)O [compound (I)]											surprisingly high potency	potent
